Assay results: publication PMC12736951, “Design, Synthesis, and Biological Evaluation of 6″-Modified Apramycin Derivatives to Overcome Aminoglycoside Resistance” (Pharmaceutics, 2025)
≈ marks a conversion by molar mass, not a printed value. Like-named read-outs stand apart in the source and are kept apart here.

How the values were obtained:
K. pneumoniae MAR14-3395 = assay: MIC, MDR clinical isolate; format: cell-based; conditions: K. pneumoniae MAR14-3395, MDR clinical isolate (NDM-1 + OXA-244)
Text: (§1) The microbial strains used in this study were obtained from the collection of the Gause Institute of New Antibiotics. The control strains included in the analysis were S. aureus ATCC 29213, E. coli ATCC 25922, P. aeruginosa ATCC 27853, M. smegmatis ATCC 607. Clinical isolates E. coli MAR17-1350, K. pneumoniae APEX-5, K. pneumoniae MAR14-3395, and K. pneumoniae MAR18-1752 with multidrug resistance, including resistance to aminoglycosides were kindly provided by the Research Institute of Antimicrobial Chemotherapy (RIAC) of the Smolensk State Medical University, Smolensk. The microbial cultures were stored at −75 °C in trypticase soy broth (Becton, Dickinson, France) containing 10–15% glycerol. Storage was carried out in accordance with CLSI guidelines. Prior to experimentation, the bacterial strains were revived from cryopreservation by inoculating them onto trypticase soy agar (Becton, Dickinson, France) and incubating at (36 ± 1) °C for 16–24 h. Individual morphologically homogeneous colonies were then suspended in sterile physiological saline, and the turbidity of the suspension was adjusted to 0.5 McFarland units using a DEN-1 spectrophotometer (Biosan, Riga, Latvia), which corresponds to a concentration of 1.5 × 10^8 CFU/mL.
(§2) The samples were dissolved in sterile distilled water, depending on the physicochemical properties of the compounds under investigation, to a concentration of 10,000 µg/mL. Working solutions were then prepared by serial dilution, resulting in concentrations ranging from 64 µg/mL to 0.125 µg/mL.
(§3) Activity was evaluated by determining the minimum inhibitory concentration (MIC) values using the microdilution method in Mueller–Hinton Broth (Beckton and Dickinson, Le Pont-de-Claix, France), in accordance with the standard procedure for assessing the antimicrobial susceptibility of microorganisms.
(§4) The analysis was conducted in 96-well microtiter plates (Medpolymer, Saint Petersburg, Russia). The bacterial inoculum was introduced within 15 min of preparation. MIC values were determined after incubation for 15–18 h at (36 ± 1) °C. Microbial growth in the presence of the tested compounds was compared to the growth control (without exposure to the test samples). The MIC was defined as the lowest concentration at which visible microbial growth was inhibited.
(§5) To ensure the accuracy of the results, the control antibiotics kanamycin A, gentamycin, and tobramycin (Abcr GmbH, Karlsruhe, Germany) were included, along with standard reference strains: E. coli ATCC 25922. The MIC values for kanamycin A were determined as follows: E. coli ATCC 25922—1–4 µg/mL [22]. For gentamycin, the MIC values were E. coli ATCC 25922–0.25–1 µg/mL [23]. For tobramycin, the MIC values were E. coli ATCC 25922–0.25–1 µg/mL [23]. The MIC values of the reference strains were required to fall within the acceptable ranges specified in [24], provided that standard assay conditions were maintained.

K. pneumoniae APEX-5 = assay: MIC, MDR clinical isolate; format: cell-based; conditions: K. pneumoniae APEX-5, MDR clinical isolate (NDM-16)
Text: as §1, §2, §3, §4, §5

K. pneumoniae MAR18-1752 = assay: MIC, MDR clinical isolate; format: cell-based; conditions: K. pneumoniae MAR18-1752, MDR clinical isolate (NDM-1)
Text: as §1, §2, §3, §4, §5

E. coli MAR17-1350 = assay: MIC, MDR clinical isolate; format: cell-based; conditions: E. coli MAR17-1350, MDR clinical isolate (NDM-5)
Text: as §1, §2, §3, §4, §5

E. coli JW5503 KanR = assay: MIC against transformant carrying APH(3′)-II; format: cell-based
Description: (§6) The determination of the MIC values was performed on five strains from the working collection of MSU. E. coli JW5503 [25], which lacked a kanamycin resistance cassette that had been removed as per the method outlined in [26], and a strain derived from this strain through in vitro selection with kanamycin. […] Strains containing AG-modifying enzymes were obtained through the transformation of E. coli JW5503 with plasmids that carried cassettes of resistance, namely pCRISPomyces-2–AAC(3)-IV (Addgene #61737), pdualrep2–APH(3′)-II [27] and pt67–ANT(3″). The MIC determination was performed as described for JW5503 in [19].

E. coli ATCC 25922 [1] = assay: MIC, broth microdilution; format: cell-based, Escherichia coli
Text: as §1, §2, §3, §4, §5

[2] = system: E. coli JW5503 EF-G P610T; assay: MIC against aminoglycoside-resistant EF-G mutant; format: cell-based
Description: as §6

E. coli JW5503 ApmR = assay: MIC against transformant carrying AAC(3)-IV; format: cell-based
Description: as §6

E. coli JW5503 SmR = assay: MIC against transformant carrying ANT(3″); format: cell-based
Description: as §6

E. coli JW5503 kanS = assay: MIC against E. coli JW5503 parent strain; format: cell-based
Description: as §6

E. coli ATCC 25922 [3] = conditions: E. coli ATCC 25922, reference strain quality control; cited from earlier work
S. aureus ATCC 29213 = assay: MIC, broth microdilution; format: cell-based; conditions: Staphylococcus aureus, ATCC29213, Table 1
Text: as §1, §2, §3, §4, §5

P. aeruginosa ATCC 27853 = assay: MIC, broth microdilution; format: cell-based; conditions: Pseudomonas aeruginosa, ATCC27853, Table 1
Text: as §1, §2, §3, §4, §5

[4] = system: HEK293T human embryonic kidney cell line; assay: Cytotoxicity, MTT test; format: cell-based; conditions: HEK-293T, 72 h, 2-250 µg/mL, read-out: IC50, viability of HEK293T cells
Description: The MTT test was performed in order to evaluate the effect of the compounds on eukaryotic cells’ survivability. Compounds 5a,b, 8a,b, and apramycin, as the reference drug, were tested on HEK293T human embryonic kidney cell line (ATCC). Compounds 5a,b, 8a,b, and apramycin were prepared as water solutions with a 50 mg/mL concentration. The HEK293T cell line was cultivated in DMEM/F-12 medium (Paneco LLC, Moscow, Russia) containing 10% FBS, 50 µg/mL penicillin, and 50 µg/mL streptomycin (Thermo Fisher Scientific, USA) at 37 °C in 5% CO2. Triplicates on 96-well plates were used, and 2500 HEK293T cells were seeded in 140 µL of DMEM/F-12 medium in each well during day one. The next day, compounds in twofold successive dilutions were added to these plates (concentrations in wells ranged between 2 and 250 µg/mL for 5a, 5b, and 8a, 8b). Plates were incubated for 72 h at 37 °C in 5% CO2. Afterwards, 0.5 mg/mL of the MTT reagent (Paneco LLC, Moscow, Russia) was added to each well. After 2 h of incubation, the media with MTT was replaced with 140 µL of DMSO, and all plates were placed on a shaker for 10 min for formazan to dissolve. Finally, the absorbance at a 555 nm wavelength was measured on all plates via the plate reader Victor X5 (PerkinElmer, Waltham, MA, USA). The data were then normalized, and dose–response curves and IC50 were calculated by means of GraphPad Prism version 8.0.2. (GraphPad Software, Inc., San Diego, CA, USA).

M. smegmatis ATCC 607 = assay: MIC, broth microdilution; format: cell-based, Mycobacterium smegmatis; conditions: Mycolicibacterium smegmatis, ATCC607, Table 1
Text: as §1, §2, §3, §4, §5

[5] = system: E. coli JW5503 with pJC27 β-galactosidase codon 537 reporter; assay: Translation accuracy using β-galactosidase reporters; format: cell-based; conditions: 0.1 μL of 50 mg/mL, 37 °C, 18 h, codon 537 GAC/GGG reporters
Description: To evaluate translation accuracy in the presence of antibiotics, E. coli JW5503 (kanamycin resistance cassette removed as per) was transformed with pJC27 plasmids. […] The synthesis of active β-galactosidase depends on translation errors occurring (when codons GAC and GGG are read as GAA). Petri dishes (9 cm) containing 20 mL of solid LB agar (1.5%), supplemented with chloramphenicol (11.3 μg/mL) and X-Gal (80 μg/mL), were prepared. A secondary soft-agar layer comprising 3.5 mL of LB agar (0.6%) supplemented with 11.3 μg/mL chloramphenicol and 0.5 mL of liquid culture (A600~1.0) was added and allowed to solidify. Antibiotics were applied to the plates in 0.1 μL aliquots at a concentration of 50 mg/mL for tobramycin, streptomycin, kanamycin, and apramycin, and for 5a, 5b, 8a, and 8b. The plates were then incubated at 37 °C for 18 h. […] The results were documented using a Samsung Galaxy Tab A71 camera.

[6] = Klebsiella pneumoniae, MAR143395, read-out: MIC
[7] = Klebsiella pneumoniae, APEX5, read-out: MIC
[8] = Klebsiella pneumoniae, MAR181752, read-out: MIC
[9] = Escherichia coli, MAR171350, read-out: MIC

| Molecule | MIC (K. pneumoniae MAR14-3395; [6]) [µg/mL] | MIC (K. pneumoniae APEX-5; [7]) [µg/mL] | MIC (K. pneumoniae MAR18-1752; [8]) [µg/mL] | MIC (E. coli MAR17-1350; [9]) [µg/mL] | MIC (E. coli JW5503 KanR; Escherichia coli, JW5503KANR) [µg/mL] | MIC ([2]; Escherichia coli) [µg/mL] | MIC (E. coli JW5503 ApmR; Escherichia coli, JW5503APMR) [µg/mL] | MIC (E. coli JW5503 SmR; Escherichia coli, JW5503SMR) [µg/mL] | MIC (E. coli JW5503 kanS; Escherichia coli, JW5503KANS) [µg/mL] | MIC, control antibiotic range (E. coli ATCC 25922 [3]) [µg/mL] | other results |
| --- | --- | --- | --- | --- | --- | --- | --- | --- | --- | --- | --- |
| NC[C@H]1O[C@H](O[C@H]2[C@H](O)[C@@H](O[C@H]3O[C@H](CO)[C@@H](O)[C@H](N)[C@H]3O)[C@H](N)C[C@@H]2N)[C@H](N)C[C@@H]1O [Tobramycin, tobramycin, reference compound] | > 128 | 32 (≈ 68.4 µM) | > 128 | > 128 | 2 (≈ 4.28 µM) | 16 (≈ 34.2 µM) | > 256 | 4 (≈ 8.56 µM) | 2 (≈ 4.28 µM) | 0.25 to 1 | MIC (E. coli ATCC 25922 [1]; Escherichia coli, ATCC25922, Table 2, read-out: MIC): 0.5 µg/mL (≈ 1.07 µM) |
| [H]/N=C(/N)N[C@H]1[C@H](O)[C@@H](O)[C@H](O[C@@H]2O[C@@H](C)[C@](O)(C=O)[C@H]2O[C@@H]2O[C@@H](CO)[C@H](O)[C@@H](O)[C@@H]2NC)[C@@H](N/C(N)=N\[H])[C@@H]1O [Streptomycin, streptomycin, reference compound] | – | – | – | – | 4 (≈ 6.88 µM) | 8 (≈ 13.8 µM) | 4 (≈ 6.88 µM) | > 256 | 4 (≈ 6.88 µM) | – | – |
| kanamycin A [reference compound] | – | – | – | – | – | – | – | – | – | 1 to 4 | MIC (K. pneumoniae MAR14-3395): >128 µg/mL; MIC (K. pneumoniae APEX-5): >128 µg/mL; MIC (K. pneumoniae MAR18-1752): >128 µg/mL; MIC (E. coli MAR17-1350): >128 µg/mL; MIC (E. coli JW5503 KanR; E. coli JW5503 KanR, APH(3′)-II on plasmid): >256 µg/mL; MIC (E. coli ATCC 25922 [1]; Table 2): 2 µg/mL; MIC ([2]; E. coli JW5503 EF-G P610T (fusA mutant)): 64 µg/mL; MIC (E. coli JW5503 ApmR; E. coli JW5503 ApmR, AAC(3)-IV on plasmid): 32 µg/mL; MIC (E. coli JW5503 SmR; E. coli JW5503 SmR, ANT(3″) on plasmid): 8 µg/mL; MIC (E. coli JW5503 kanS; E. coli JW5503 kanS (parent strain)): 4 µg/mL |
| CN[C@@H]1[C@@H](O[C@H]2O[C@H](CO)[C@@H](N)[C@H](O)[C@H]2O)OC2C[C@@H](N)[C@@H](O[C@H]3[C@H](O)[C@@H](O)[C@H](N)C[C@@H]3N)OC2[C@@H]1O (stereo partly drawn) [Apramycin (1), apramycin] | 1 | 1 (≈ 1.85 µM) | 1 (≈ 1.85 µM) | 4 (≈ 7.41 µM) | 4 (≈ 7.41 µM) | 64 (≈ 119 µM) | > 256 | 8 (≈ 14.8 µM) | 8 (≈ 14.8 µM) | – | MIC (E. coli ATCC 25922 [1]; Escherichia coli, ATCC25922, Table 1, read-out: MIC): 1 µg/mL (≈ 1.85 µM); MIC (S. aureus ATCC 29213): 1 µg/mL (≈ 1.85 µM); MIC (P. aeruginosa ATCC 27853): 2 µg/mL (≈ 3.71 µM); IC50 [4]: > 250 µg/mL; MIC (M. smegmatis ATCC 607): 0.125 µg/mL (≈ 0.232 µM); induction of translation errors (blue staining at edge of inhibition zone) [5]: blue staining |
